In patent US20130203805A1, “Methods for treating anemia using inhibitors of hypoxia-inducible factor (HIF) hydroxylase” (FIBROGEN, INC., priority 2001, published 2013):
Where two headings read alike, the source gives them in different places.

Assay type: in vivo, Sprague Dawley male rats
Settings: rat, in vivo, ip
Experimental: The ability of a compound of the invention to treat anemia associated with post-ischemic acute renal failure was assayed using a procedure described by Vaziri et al. (1994, Am J Physiol 266(3 Pt 2):[…]-6.) Fifteen Sprague Dawley male rats (280-300 g) were obtained from Charles River Laboratories. On day 0, rats were treated by intraperitoneal injection with a single dose of saline (control; n=3) at 8 ml/kg, or cisplatin (CP; Bedford Laboratories, Bedford Ohio) at either 7 mg/kg (7 ml/kg; n=6) or 10 mg/kg (10 ml/kg; n=6). Blood samples (0.2 ml) were collected on days 5, 9, and 16 as follows. […] Blood samples were processed for hematocrit as described above to determine the degree of anemia produced in each animal. […] Blood samples (0.5 ml) were collected as described above immediately prior to treatment and 4 days after treatment initiation. Blood samples were analyzed for CBC and reticulocyte counts as described above. On day 9 after initiation of oral treatment, a blood sample (0.1 ml) was collected and processed for hematocrit as described above.

N.N.[Cl][Pt][Cl] [CP, cisplatin, reference compound]
reduction of hematocrit relative to controls (7 mg/kg): 14%
reduction of hematocrit relative to controls (10 mg/kg): 22%
